From PubChem BioAssay (NCI)
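48-hour exposure; five concentrations; linearly interpolated endpoints. Abbreviation: GI50, concentration required for 50% inhibition of growth. TGI denotes the concentration required for complete inhibition of growth.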

How the values were obtained:
Assay in all cases: NCI-60 cell line screen, 48 h
CCRF-CEM leukemia = system: CCRF-CEM leukemia
COLO 205 colon = system: COLO 205 colon
HCT-15 colon = system: HCT-15 colon
KM12 colon = system: KM12 colon
M14 melanoma = system: M14 melanoma
MDA-MB-435 = system: MDA-MB-435
SK-MEL-2 melanoma = system: SK-MEL-2 melanoma
TK-10 renal = system: TK-10 renal
U251 CNS = system: U251 CNS
UACC-62 melanoma = system: UACC-62 melanoma

Row | SMILES | GI50 (CCRF-CEM leukemia) [µM] | TGI (CCRF-CEM leukemia) [µM] | GI50 (COLO 205 colon) [µM] | TGI (COLO 205 colon) [µM] | GI50 (HCT-15 colon) [µM] | TGI (HCT-15 colon) [µM] | GI50 (KM12 colon) [µM] | TGI (KM12 colon) [µM] | GI50 (M14 melanoma) [µM] | TGI (M14 melanoma) [µM] | GI50 (MDA-MB-435) [µM] | TGI (MDA-MB-435) [µM] | GI50 (SK-MEL-2 melanoma) [µM] | TGI (SK-MEL-2 melanoma) [µM] | GI50 (TK-10 renal) [µM] | TGI (TK-10 renal) [µM] | GI50 (U251 CNS) [µM] | TGI (U251 CNS) [µM] | GI50 (UACC-62 melanoma) [µM] | TGI (UACC-62 melanoma) [µM]
1 | COc1ccc(C2=C(c3cn(C)c4ccccc34)C(=O)NC2=O)cc1OC | 6.38 | > 25 | 5.57 | > 20.3 | 6.4 | > 25 | 6.34 | > 25 | 6.83 | > 25 | 1.1 | > 25 | 6.18 | > 18.6 | 9.2 | > 25 | 7.62 | > 25 | 8.12 | > 25
2 | CN(/N=N/c1nc(OCc2ccccc2)c2[nH]cnc2n1)C(=O)N(C)/N=N/c1nc(OCc2ccccc2)c2[nH]cnc2n1 | 49.6 | > 100 | 37.5 | > 100 | 35.4 | > 100 | 84.2 | > 100 | 71.2 | > 100 | 49.1 | > 100 | 65.3 | > 100 | 27.2 | > 100 | 49.9 | > 100 | 30.8 | > 100
